pEC50, pIC50, pKd: −log10 of the molar value. Like-named read-outs stand apart in the source and are kept apart here.
Tests used:
[1] = design: method as in PMID 40455368; conditions: 28-day, oral 10 mg/kg, rats; cited from earlier work
[2] = Acute (7-day i.v.) toxicity in rats; format: in vivo, rat; conditions: 10 mg/kg i.v. daily for 7 days
Procedure: Cpd.51 was dissolved in solvent (10% DMSO, 10% Solutol HS-15 and 80% saline). It was injected (i.v.) at dose of 3 mg/kg or 5 mg/kg in a 0.5 mL volume. The Sham group and Vehicle group were treated simultaneously with an equal volume of solvent. In the experiment to explore the treatment time window, we merely administered the drug to the rats at different time points, while all other procedures remained unchanged. In the short-term toxicity study, 10 mg/kg Cpd.51 and Oma were administered via tail vein injection at 0.5 mL daily for 7 consecutive days.
Glutamic-pyruvic transaminase (GPT) kits (ml092635, mlbio, China), glutamic oxaloacetic transaminase (GOT) kits (ml092714, mlbio, China), creatinine (CRE) kits (M12C4L, mlbio, China) and blood urea nitrogen (BUN) kits (ml076479, China) were used to detect the serum of rats in order to evaluate liver and kidney functions. Male and female rats were randomly divided into Sham group, Cpd.51 group and Oma group. Doses were administered once daily at 10 mg/kg and body weights were recorded accordingly. Sham groups were given the same volume of solvent. After 7 days, the […] were sacrificed, serum was collected and tested according to the instructions.

[3] = 28-day long-term toxicity in rats (intragastric); format: in vivo, rat; conditions: 28 days intragastric
Procedure: During the long-term toxicity test, rats in each group received daily intragastric administration for 28 consecutive days. Animals in the Sham group were administered a mixture of 99% sesame oil and 1% DMSO at a volume of 0.5 mL per rat. Rats in the remaining groups were intragastrically administered varying doses of the respective therapeutic agents.
During the 28-day long-term toxicity study, rats were euthanized following the completion of continuous intragastric administration. Livers and kidneys from both male and female rats in each group were photographed for macroscopic examination, and serum samples were collected for subsequent kit-based analysis. The liver/kidney index was obtained by dividing the weight of the liver/kidney by the body weight.

[4] = system: ARE-luciferase reporter (Nrf2 activation), Hek-293T cells; experiment: ARE-luciferase reporter gene assay; format: cell-based; conditions: Homo sapiens; Hek-293T cells, 12 h after drug treatment
Procedure: The Hek-293T cells were cultured in 96-well plates 24 h before transfection with ARE-luciferase reporter plasmid (11548ES03, Yeasen, China) for 48 h according to the manufacturer's instructions. The Firefly luciferase activities was carried out 12 h after the drug treatment, as described by the manufacturer (11412ES81, Yeasen, China).

SH-SY5Y cells [5] = experiment: Protection against OGD/R damage in SH-SY5Y cells (CCK-8); format: cell-based, human
Procedure: To mimic ischemic conditions in vitro, cells were washed with PBS and then cultured for 2.5 h at 37 °C in glucose-free medium under anaerobic conditions (5% hydrogen, 90% nitrogen, and 5% carbon dioxide). OGD process was terminated by transferring cells back to normal glucose-containing medium under normoxic conditions (5% CO₂, 37 °C) and maintained for 24 h.
In the administration group, cells were exposed for 12 h with Cpd.51 prior to OGD. OGD lasted for 2.5 h and the reperfusion lasted for 24 h before the experiment was concluded. Subsequently, cell viability was determined using the cell counting kit-8 (CCK-8, C0039, Beyotime, China). In the experiment to explore the treatment time window, the only difference was the timing of the Cpd.51 treatment, while all other procedures remained unchanged.
Hek-293T cells were transiently transfected, using Lipofectamine™ 3000 and P3000™ reagent (L3000075, Invitrogen, USA) according to the manufacturer's instructions, with the wild-type, point-mutant and double-mutations constructs of Keap1, DHRS3 or Nrf2 (each at 0.5 ng/μL), respectively. Similarly, to promote the expression of the DHRS3 gene, a DHRS3 expression plasmids (0.5 ng/μL) was transfected as well as the corresponding negative controls into SH-SY5Y cells for 6 h, and further cultured with fresh medium for 18 h according to the manufacturer's instructions.

SH-SY5Y cells [6] = experiment: Cytotoxicity in SH-SY5Y cells, 24 h incubation; format: cell-based; conditions: Homo sapiens
[7] = molecular target: T1, Human recombinant Keap1 proteins (Homo sapiens, UniProt Q14145); experiment: SPR binding to full-length Keap1; design: purchased Sinobiological ME18DE0203; conditions: read-out: KD of Oma (Keap1)
Procedure: The binding affinity of Cpd.51 or Oma to Keap1 proteins were measured using a Biacore T200. The overall experimental procedures were based on previous reports, [28]. Human recombinant Keap1 proteins or truncated form of Keap1 (residues 48-180 and residues 48-149) were captured on a CM5 chip by a standard amine coupling procedure. Binding sensorgrams were recorded by injecting various concentrations of Cpd.51 over the immobilized proteins surface. The dissociation constant was obtained by globally fitting the data (to the 1:1 Langmuir binding model using the Biacore Insight evaluation software (Cytiva, Marlborough, MA, USA). Affinity tests for Cpd.51 and DHRS3 were also performed using the aforementioned method.

[8] = design: method as in PMID 37155124; conditions: clinical; cited from earlier work
tMCAO rats = experiment: Long-term recovery after tMCAO (survival, body weight, behaviour); format: in vivo, rat; conditions: 5 mg/kg tail vein injection for 7 d
Procedure: To assess the degree of neurological impairment, we conducted modified Neurological Severity Score (mNSS) according to previous experience. The investigator was blinded to the grouping situation during the whole experiment.
On postoperative day 3 two wooden boards of identical size were joined at a 30° angle, with a narrow gap retained at the junction. The rat was positioned facing the apex of the angle. When it advanced into the deeper part of the angle, bilateral whisker contact with the boards triggered a characteristic rearing response, followed by a turn to face the opposite direction. Each rat underwent 15 trials, and the number of right turns was recorded. The higher the right-turn ratio, the more severe the injury.
Rats were placed on a horizontal, stainless steel wire grid. The grid was then smoothly rotated 180 degrees to an inverted position and held stationary at a height of 0.8 m. A stopwatch was started immediately upon inversion to measure the latency to fall. The test was terminated if the animal remained on the grid for 60 s, at which point it was gently returned to its home cage, and a score of 60 s was recorded.
The Y-maze apparatus consisted of three symmetrically arranged enclosed arms (typically labeled Arms A, B, and C), each positioned 120° apart. At the start of each trial, the subject was placed in Arm A and allowed to move freely through the maze for 8 min. Spatial working memory was evaluated by calculating the spontaneous alternation rate, using the following formula:
Following a 2 h acclimation period, the rats were within an open field cubic box (100 × 100 × 40 cm^3) and allowed 5 min of unrestricted movement. The travel distance and the time spent in the central area were recorded.
The spatial learning and memory of rats were assessed using the Morris water maze (MWM) from post-operative days 23 to 26. Over four consecutive days, animals underwent training trials in which they were required to locate a submerged escape platform within 60 s. Each rat was gently placed into the water facing the pool wall. If the rat found the platform and remained on it for 10 s, the escape latency was recorded. If the platform was not found within 60 s, the rat was guided onto it and allowed to stay for 10 s, and the latency was recorded as 60 s. Following the training phase, the platform was removed, and a visual spatial memory test lasting for 60 s was conducted to assess the retention of memory. The number of platform-location crossings and the time spent in the target quadrant were recorded and analyzed.

[9] = cited from earlier work
[10] = molecular target: T1, Human recombinant Keap1 proteins; conditions: cited from earlier work
[11] = Oma 10 mg/kg, Cpd.51 1, 3 and 10 mg/kg

T1 sequence (Q14145 whole entry, the tested form may be a part): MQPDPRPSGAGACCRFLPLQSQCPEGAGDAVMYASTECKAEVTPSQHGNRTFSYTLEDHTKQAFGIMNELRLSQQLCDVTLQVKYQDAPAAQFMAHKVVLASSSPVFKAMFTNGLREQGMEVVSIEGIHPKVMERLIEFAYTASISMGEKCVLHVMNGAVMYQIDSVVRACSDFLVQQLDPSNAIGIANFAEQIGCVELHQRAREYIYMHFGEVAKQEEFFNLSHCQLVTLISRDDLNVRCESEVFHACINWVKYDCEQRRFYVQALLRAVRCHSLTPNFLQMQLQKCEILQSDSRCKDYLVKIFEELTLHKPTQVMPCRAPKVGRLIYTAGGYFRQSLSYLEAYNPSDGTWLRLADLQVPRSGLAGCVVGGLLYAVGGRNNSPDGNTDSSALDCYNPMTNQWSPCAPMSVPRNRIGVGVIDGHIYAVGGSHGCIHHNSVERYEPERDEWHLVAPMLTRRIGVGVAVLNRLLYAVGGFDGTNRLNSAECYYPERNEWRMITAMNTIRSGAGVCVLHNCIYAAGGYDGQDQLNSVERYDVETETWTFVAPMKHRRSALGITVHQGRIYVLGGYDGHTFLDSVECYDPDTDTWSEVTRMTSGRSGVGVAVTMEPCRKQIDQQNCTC
Sequence of Nrf2 (Q16236 whole entry): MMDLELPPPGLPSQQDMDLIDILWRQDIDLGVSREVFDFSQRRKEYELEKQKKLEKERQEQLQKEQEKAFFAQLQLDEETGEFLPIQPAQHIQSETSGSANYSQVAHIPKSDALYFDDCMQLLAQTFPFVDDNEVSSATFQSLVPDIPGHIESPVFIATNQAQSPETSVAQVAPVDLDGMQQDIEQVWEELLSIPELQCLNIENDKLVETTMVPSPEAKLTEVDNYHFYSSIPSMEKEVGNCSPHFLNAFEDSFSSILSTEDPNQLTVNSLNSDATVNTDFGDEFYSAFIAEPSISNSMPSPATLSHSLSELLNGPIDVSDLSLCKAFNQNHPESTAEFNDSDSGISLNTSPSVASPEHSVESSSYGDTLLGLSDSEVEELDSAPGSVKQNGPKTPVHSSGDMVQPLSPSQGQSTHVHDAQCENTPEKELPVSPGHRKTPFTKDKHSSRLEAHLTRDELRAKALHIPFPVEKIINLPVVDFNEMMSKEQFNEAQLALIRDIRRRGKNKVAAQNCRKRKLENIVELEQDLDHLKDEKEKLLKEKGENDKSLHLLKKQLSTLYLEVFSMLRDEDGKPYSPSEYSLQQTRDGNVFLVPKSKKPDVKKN

Row | pKd [7] | Molecule | hepatotoxicity (liver weight, plasma ALT) [1] | liver hypertrophy, serum GPT and GOT [2] | serum CRE and BUN [2] | weight gain [2] | liver and kidney indices ([3]; 10 mg/kg, female and male rats) | body weight [3, 11] | plasma markers of hepatic and renal injury [3, 11] | pEC50 [4] | OGD/R damage when administered at different time points (SH-SY5Y cells [5]; 100 nM, CCK-8) | pEC50 (SH-SY5Y cells [5]; Homo sapiens, SH-SY5Y, read-out: EC50 against OGD/R damage) | pIC50 (SH-SY5Y cells [6]) | apparent volume of distribution (Vd) [8] [L/kg] | terminal half-life (T1/2) [8] [h] | body weight and mNSS scores, long-term (tMCAO rats) | corner, inverted screen, Y maze and open field tests (tMCAO rats; vs model group) | patients developing liver injury during clinical trials [9] | pKd [10]
1 | 7.66 | CC1(C)CC[C@]2(NC(=O)C(C)(F)F)CC[C@]3(C)[C@H](C(=O)C=C4[C@@]5(C)C=C(C#N)C(=O)C(C)(C)[C@@H]5CC[C@]43C)[C@@H]2C1 [Oma, Omaveloxolone, reference compound] | induced hepatotoxicity | marked liver hypertrophy and elevated serum levels of glutamic-pyruvic transaminase (GPT) and glutamic oxaloacetic transaminase (GOT) | increased serum creatinine (CRE) and blood urea nitrogen (BUN) levels | suppressed weight gain | markedly increased the liver and kidney indices | neither compound significantly affected body weight | significantly elevated plasma markers of hepatic and renal injury | 6.98 | consistently alleviated OGD/R damage | 7.09 | 6.12 | ~105 | ~57 | significantly improved body weight and mNSS scores | exhibited improvements in neurological deficits, motor abilities, and spatial working and reference memory | ~ 37% | –
2 | – | Nrf2 (from UniProt Q16236) | – | – | – | – | – | – | – | – | – | – | – | – | – | – | – | – | 7.72

Reference: paper PMC13081163, “Discovery of a novel Nrf2 activator that modulates mitochondrial function in neurons by regulating DHRS3-Nrf2 interaction after ischemic stroke” (Theranostics, 2026)
